This note sets out measurements from patent publication EP4818172A1, “ASCORBIC ACID DERIVATIVES AND COSMETIC CONTAINING SAME” (Seiwa Kasei Co., Ltd., priority 2023, dated 2025).

Series [1] in a line: Stability test -1: residual rate of 1% aqueous solutions at pH 3 to 9 on storage. Type of series: physicochemical. As to conditions: for Residual Rate After 2 weeks / Residual Rate After 4 weeks: 1% aqueous solution.
Series [2] can be described thus: Stability test -1: odor and coloration scored by 10 panelists. It is filed as physicochemical. Particulars: Test Example 1, aqueous solution, total score of 10 panelists. On the procedure:
(§1) For each of the samples of Synthesis Examples 1 to 6, 1% aqueous solutions were adjusted to pH 3, 5, 7, 8, and 9 with a dilute potassium hydroxide aqueous solution, and then placed in 50 mL screw tubes and • 2: Color changes compared to immediately after preparation. • 1: Strongly colored compared to immediately after preparation. Based on the results of the above evaluation, the following classification was made: • ○: Total score of 10 panelists is 25 or more • △: Total score of 10 panelists is 16-24 • ×: The total score of 10 panelists is 15 or less [Table 10]

Series [3] is described as follows: Stability test -2: residual rate in cream of pH 7 or 9 stored at 50°C. Type of series: physicochemical. As to conditions: cream with 4.0 W/W% derivative. The protocol:
(§2) For each of the samples of Synthesis Examples 9 to 32, (a) and (b) shown in Table 12 were each heated and mixed. After cooling, (c) shown in Table 12 was added to prepare a cream with a pH of 7 or 9. The sample was stored at 50°C for 4 weeks, and the residual rate was determined in the same manner as in Test Example 1 and evaluated according to the criteria described below. The odor and coloration were also evaluated according to the same method and criteria as in Test Example 1. The results regarding the residual rate are shown in Tables 13 and 14, and the results regarding the odor and coloration are shown in Tables 15 and 16.
• ⊚: 95% or more • ○: 85% or more, less than 95% • ×: Less than 85% [Table 12]

Series [4] can be described thus: Stability test -2: odor and coloration of cream stored at 50°C. It is filed as physicochemical. Particulars: Test Example 2, cream stored at 50°C, total score of 10 panelists. On the procedure:
as §1, §2

Series [5] relates to Normal human dermal fibroblasts (NHDF). Kind of series: Hyaluronic acid production promoting effect (ELISA of supernatant). Type of series: cell-based. Particulars: sample at 10 mM or less in serum-free D-MEM, cultured 48 hours, % of control group (100%), N=3. The protocol:
Normal human dermal fibroblasts (NHDF) were prepared in D-MEM containing 5% (v/v) fetal bovine serum to a cell density of 2.5 × 10^4 cells/well, and then pre-incubated on a 96-well plate for 24 hours. After removing the medium, samples prepared in serum-free D-MEM were added to each well and cultured for 48 hours. After the culture was completed, the amount of hyaluronic acid in the supernatant was quantified by ELISA. Measurements were performed in triplicate (N=3).
The amount of hyaluronic acid produced when the sample was measured at a concentration of 10 mM or less was compared with that of the control group, and the results (% values when the control group is set to 100%) are shown in Tables 18 to 20 based on the following criteria. • <100%: ± • 100-120%: + • 120%<: ++ [Table 18]
On the technique in general: An ELISA detects its analyte on a solid surface through an enzyme-linked reagent.

In the case of “Bisglyceryl ascorbic acid [reference compound]”, in series [1] (pH3, stored at 50°C), the “Residual Rate After 2 weeks” value was “⊚” and the “Residual Rate After 4 weeks” value is “⊚”. Further, in series [1] (pH5, stored at 50°C), the “Residual Rate After 2 weeks” value is “⊚” and the “Residual Rate After 4 weeks” value is “⊚”. In series [1] (pH7, stored at 50°C), the “Residual Rate After 2 weeks” value is given as “×” and the “Residual Rate After 4 weeks” value was “×”. Moreover, in series [1] (pH8, stored at 50°C), the “Residual Rate After 2 weeks” value is “×” and the “Residual Rate After 4 weeks” value was “×”. Moreover, in series [1] (pH9, stored at 50°C), the “Residual Rate After 2 weeks” value is reported as “×” and the “Residual Rate After 4 weeks” value was “×”. In series [2], the “Coloration After 2 weeks” value is reported as “Δ”, the “Odor After 2 weeks” value was “Δ”, the “Coloration After 4 weeks” value was “Δ” and the “Odor After 4 weeks” value is “Δ”.

Consider `CC(C)CCCCCCCCCCCCCCC(=O)OCC(O)C1OC(=O)C2=C1OCCCO2` (stereo not drawn) [synthetic example 28, 6-O-isostearoyl-2,3-O-(1,3-propanediyl) ascorbic acid], for which, in series [3] (pH7, stored at 50°C), the “Residual Rate After 2 weeks” value is on record as “⊚ (95% or more)” and the “Residual Rate After 4 weeks” value is on record as “⊚ (95% or more)”. Further, in series [3] (pH9, stored at 50°C), the “Residual Rate After 2 weeks” value is reported as “⊚ (95% or more)” and the “Residual Rate After 4 weeks” value was “⊚ (95% or more)”. Besides, in series [4], the “Coloration After 2 weeks” value was “○ (Total score of 10 panelists is 25 or more)”, the “Odor After 2 weeks” value is on record as “○ (Total score of 10 panelists is 25 or more)”, the “Coloration After 4 weeks” value is “○ (Total score of 10 panelists is 25 or more)” and the “Odor After 4 weeks” value is listed as “Δ”. The “Hyaluronic acid production-promoting effect” value in series [5] is on record as “++ (120%<)”.

For the compound `CCCCCCCC(=O)OCC(O)C1OC(=O)C2=C1OCCCCO2` (stereo not drawn) [synthesis example 11, 6-O-octanoyl-2,3-O-(1,4-butanediyl) ascorbic acid], in series [3] (pH7, stored at 50°C), the “Residual Rate After 2 weeks” value was “⊚ (95% or more)” and the “Residual Rate After 4 weeks” value was “⊚ (95% or more)”. Moreover, in series [3] (pH9, stored at 50°C), the “Residual Rate After 2 weeks” value is “⊚ (95% or more)” and the “Residual Rate After 4 weeks” value was “○ (85% or more, less than 95%)”. In addition, in series [4], the “Coloration After 2 weeks” value is “○ (Total score of 10 panelists is 25 or more)”, the “Odor After 2 weeks” value is recorded as “○ (Total score of 10 panelists is 25 or more)”, the “Coloration After 4 weeks” value is recorded as “○ (Total score of 10 panelists is 25 or more)” and the “Odor After 4 weeks” value is recorded as “Δ”. In addition, the “Hyaluronic acid production-promoting effect” value in series [5] was “++ (120%<)”.

Consider `CCCCCCCCCCCC(=O)OCC(OC(=O)CCCCCCCCCCC)C1OC(=O)C2=C1OCCCO2` (stereo not drawn) [synthesis example 25, 5,6-O-dilauroyl-2,3-O-(1,3-propanediyl) ascorbic acid], for which, in series [3] (pH7, stored at 50°C), the “Residual Rate After 2 weeks” value was “⊚ (95% or more)” and the “Residual Rate After 4 weeks” value is on record as “⊚ (95% or more)”. Further, in series [3] (pH9, stored at 50°C), the “Residual Rate After 2 weeks” value is “⊚ (95% or more)” and the “Residual Rate After 4 weeks” value is “⊚ (95% or more)”. In addition, in series [4], the “Coloration After 2 weeks” value is given as “○ (Total score of 10 panelists is 25 or more)”, the “Odor After 2 weeks” value was “○ (Total score of 10 panelists is 25 or more)”, the “Coloration After 4 weeks” value is listed as “Δ” and the “Odor After 4 weeks” value is recorded as “Δ”. Further, the “Hyaluronic acid production-promoting effect” value in series [5] was “++ (120%<)”.

As to `CCCC(=O)OCC(O)C1OC(=O)C2=C1OCCCO2` (stereo not drawn) [synthesis example 20, 6-O-butanoyl-2,3-O-(1,3-propanediyl) ascorbic acid], in series [3] (pH7, stored at 50°C), the “Residual Rate After 2 weeks” value is “⊚ (95% or more)” and the “Residual Rate After 4 weeks” value is listed as “⊚ (95% or more)”. In series [3] (pH9, stored at 50°C), the “Residual Rate After 2 weeks” value was “⊚ (95% or more)” and the “Residual Rate After 4 weeks” value is on record as “⊚ (95% or more)”. Moreover, in series [4], the “Coloration After 2 weeks” value was “○ (Total score of 10 panelists is 25 or more)”, the “Odor After 2 weeks” value is given as “○ (Total score of 10 panelists is 25 or more)”, the “Coloration After 4 weeks” value was “○ (Total score of 10 panelists is 25 or more)” and the “Odor After 4 weeks” value was “Δ”. Also, in series [5], the “Hyaluronic acid production-promoting effect” value is given as “++ (120%<)”.

`O=C1O[C@H]([C@@H](O)CO)C(O)=C1O` [Ascorbic acid]: in series [1] (pH3, stored at 50°C), the “Residual Rate After 2 weeks” value was “○” and the “Residual Rate After 4 weeks” value was “Δ”. In addition, in series [1] (pH5, stored at 50°C), the “Residual Rate After 2 weeks” value was “○” and the “Residual Rate After 4 weeks” value is listed as “×”. In series [1] (pH7, stored at 50°C), the “Residual Rate After 2 weeks” value was “×” and the “Residual Rate After 4 weeks” value was “×”. For the same compound, in series [1] (pH8, stored at 50°C), the “Residual Rate After 2 weeks” value is on record as “×” and the “Residual Rate After 4 weeks” value is “×”. Moreover, in series [1] (pH9, stored at 50°C), the “Residual Rate After 2 weeks” value is “×” and the “Residual Rate After 4 weeks” value is recorded as “×”. In addition, the residual rate entry in series [1] (Test Example 1, pH 7 to 9, stored at 50°C, after two weeks) is reported as “less than 30%”. Moreover, in series [2], the “Coloration After 2 weeks” value is listed as “Δ”, the “Odor After 2 weeks” value was “Δ”, the “Coloration After 4 weeks” value is “× (The total score of 10 panelists is 15 or less)” and the “Odor After 4 weeks” value is “× (The total score of 10 panelists is 15 or less)”. Also, the “Hyaluronic acid production-promoting effect” value in series [5] is on record as “± (<100%)”.

With `CC(C)CCCCCCCCCCCCCCC(=O)OC[C@H](OC(=O)CCCCCCCCCCCCCCC(C)C)[C@H]1OC(=O)C2=C1OCCCCO2` [synthesis example 18, 5,6-O-diisostearoyl-2,3-O-(1,4-butanediyl) ascorbic acid], in series [3] (pH7, stored at 50°C), the “Residual Rate After 2 weeks” value was “⊚ (95% or more)” and the “Residual Rate After 4 weeks” value was “⊚ (95% or more)”. Besides, in series [3] (pH9, stored at 50°C), the “Residual Rate After 2 weeks” value is given as “⊚ (95% or more)” and the “Residual Rate After 4 weeks” value is “⊚ (95% or more)”. In addition, in series [4], the “Coloration After 2 weeks” value is on record as “○ (Total score of 10 panelists is 25 or more)”, the “Odor After 2 weeks” value is given as “○ (Total score of 10 panelists is 25 or more)”, the “Coloration After 4 weeks” value is “○ (Total score of 10 panelists is 25 or more)” and the “Odor After 4 weeks” value was “Δ”. The “Hyaluronic acid production-promoting effect” value in series [5] is listed as “++ (120%<)”.

As for `CCCCCCCCCCCC(=O)OCC(O)C1OC(=O)C2=C1OCCCO2` (stereo not drawn) [synthesis example 24, 6-O-lauroyl-2,3-O-(1,3-propanediyl) ascorbic acid], in series [3] (pH7, stored at 50°C), the “Residual Rate After 2 weeks” value is reported as “⊚ (95% or more)” and the “Residual Rate After 4 weeks” value is “⊚ (95% or more)”. Besides, in series [3] (pH9, stored at 50°C), the “Residual Rate After 2 weeks” value is “⊚ (95% or more)” and the “Residual Rate After 4 weeks” value is on record as “⊚ (95% or more)”. For the same compound, in series [4], the “Coloration After 2 weeks” value was “○ (Total score of 10 panelists is 25 or more)”, the “Odor After 2 weeks” value is “○ (Total score of 10 panelists is 25 or more)”, the “Coloration After 4 weeks” value is “○ (Total score of 10 panelists is 25 or more)” and the “Odor After 4 weeks” value was “Δ”. For the same compound, in series [5], the “Hyaluronic acid production-promoting effect” value was “++ (120%<)”.
